The subject of assay [1] is mice. Kind of assay: Test of neuronal protection in mice (kainic acid striatal lesion, serum enolase gamma-gamma). It counts as in vivo. The following applies: mouse, 2 μg kainic acid in right striatum; product intraperitoneally 60 minutes before; blood samples 24 hours later; dose not given. On the procedure: (3) Test of neuronal protection in mice
A cerebral lesion was carried out on the mouse by injection in the right striatum of 2 μg of kainic acid in a volume of 0.5 μl. […] The products were injected intraperitonally 60 minutes before the neurotoxic and the blood samples were taken 24 hours later.

The test system of assay [2] is alpha2 adrenergic receptors. The assay is described as follows: Affinity for the alpha2 adrenergic receptors (3H rauwolscine displacement, rat cortex membranes). The assay is classed as binding. The following applies: 3H rauwolscine 0.15 nM, 45 minutes at 25° C., from CD (phentolamine) and CX (product) concentrations inhibiting 50% of specific fixation. On the procedure:
(1) Affinity for the alpha2 adrenergic receptors
10 cortices removed from the brains of male rats weighing an average of 150 g were homogenized in 90 ml of sucrose 0.32M and after centrifuging the homogenized mixture at 1,000 g for 10 minutes at 0° C., the supernatant was centrifuged at 30,000 g for 10 minutes at 0° to 4° C. The new residue obtained was suspended in 480 ml of NaKPO4 buffer, pH 7.4, 50 mM. 2 ml of the suspension were then incubated for 45 minutes at 25° C. in the presence of ^3 H rauwolscine at a concentration of 0.15 nM: (i) alone (ii) with increasing concentrations of the product under test, or (iii) to determine the non-specific fixation, with non-radioactive phentolamine at a concentration of 10^-5 M. The incubated suspensions were filtered on Whatman GF/C and the filters were washed three times with 5 ml of NaKPO4 buffer, pH 7.4 at 0° C. The radioactivity of the filters was measured by liquid scintillation.
The affinity of the product tested for the alpha2 adrenegic receptors was given relative to phentolamine as reference product.
CD=concentration of phentolamine inhibiting 50% of the specific fixation of the ^3 H rauwolscine:
CX=concentration of the product under test inhibiting 50% of the specific fixation of the ^3 H rauwolscine.

The subject of assay [3] is mice. The assay is described as follows: Hypobaric anoxia test on mice. Conditions: depression of 600 mm Hg, max 3 minutes, intraperitoneally 60 minutes before the test, dose not given. It counts as in vivo. On the procedure:
(2) Hypobaric anoxia test on mice
This consisted of measuring over a maximum duration of 3 minutes the survival time of mice placed in a 2 liter enclosure in which there was a depression of 600 mm Hg. The products were administered intraperitoneally at a volume of 0.2 ml/10 g 60 minutes before the test.

For the next assay, the system named is Sprague Dawley rats. Kind of assay: Test of anti-depressive activity (forced swimming immobility). The assay is classed as in vivo. Conditions: Rattus norvegicus, ip, immobility during 5 minutes, intraperitoneally 24 hours, 5 hours and a half-hour before the test, read-out: DA50 (the source's name). On the procedure: (4) Test of anti-depressive activity
The tests were carried out on groups of 5 Sprague Dawley rats and the non-conditioned animals were put for 15 minutes in a vertical perspex cylinder (diameter: 18 cm, height: […]) containing water at 25° C. to a height of 15 cm (initial swimming test). They were then dried for 15 minutes in an enclosure heated to 32° C. and 24 hours later, they were replaced in the cylinder filled with water, and the total duration of the periods of immobility was measured during 5 minutes. The compound was administered intraperitonally successively 24 hours, 5 hours and a half-hour before the test. The first administration was made immediately after the first swimming test and just before replacing the animals in their breeding box. The averages of the groups treated were compared with those of the control group by the Dunnett test.

For `O[C@H]1C[C@@H]2CCCN3CCc4c(n1c1ccccc41)[C@@H]23` [Example 3, (14α, 16α) 14,15-dihydro-20,21-dinoreburnamenin-14-ol], the enolase gamma-gamma in the assay with mice [1] was -24%. Also, the “ARL (relative affinity for alpha2 adrenergic receptors, relative to phentolamine)” value in assay [2] came to 0.3. Besides, the Survival time result in the assay on mice [3] is “+37%”. In addition, the ED50 in the assay with Sprague Dawley rats is roughly 10 mg/kg.

Take `O[C@@H]1C[C@H]2CCCN3CCc4c(n1c1ccccc41)[C@H]23` [Example 4, (3α, 14β) 14,15-dihydro-20,21-dinoreburnamenin-14-ol]: the “ARL (relative affinity for alpha2 adrenergic receptors, relative to phentolamine)” value in assay [2] is listed as 57. In addition, the ED50 in the assay with Sprague Dawley rats is roughly 5 mg/kg.

On to `C1=Cn2c3c(c4ccccc42)CCN2CCC[C@H]1[C@@H]32` [Example 5, (3α) 20,21-dinoreburnamenine], for which the “ARL (relative affinity for alpha2 adrenergic receptors, relative to phentolamine)” value in assay [2] came out at 8.

`C1=Cn2c3c(c4ccccc42)CCN2CCC[C@@H]1[C@H]32` [Example 6, (16α) 20,21-dinoreburnamenine]: the “ARL (relative affinity for alpha2 adrenergic receptors, relative to phentolamine)” value in assay [2] came to 633.

The values above are taken from US5034396A, “Method of treating depression with optically active isomers of 20,21-dinoreburnamenines” (Roussel Uclaf, priority 1987, dated 1991).
